The values that follow are results of earlier work, collected in paper PMC6024615, “Effect of Biliary Drainage on the Toxicity and Toxicokinetics of Amanita exitialis in Beagles” (Toxins, 2018).

The conditions of series [1]: intravenous injection, general anesthesia, radioactivity; cited from earlier work. How it is done: In previous studies, the radioactivity of labeled amatoxins in the serum of dogs or pigs was determined after an intravenous injection of amatoxins; bile was collected and measured using tubes tied to the bile duct under general anesthesia. More than 80% of 14C-methyl-γ-amanitin (14C-A) was eliminated in the urine, with less than 10% in the bile. Different toxin exposure patterns might result in different toxicokinetic data. 14C-A and 3H-O-methyl-dehydroxymethyl-α-amanitin (3H-A) were used for toxicokinetic studies in the animals; the animals were under general anesthesia du ...

For series [2] the following is noted: human and rats; cited from earlier work. How it is done: Vesconi et al. found amatoxins were detectable in the serum of 65% patients within 30 h after ingestion of Amanita phalloides. In another study in patients intoxicated with Amanita phalloides, amatoxins were detectable in the plasma of most patients within 36 h after ingestion. […] These toxins were rapidly detected (30 min) in plasma and ...

Regarding 14C-methyl-γ-amanitin, in series [1], the “share eliminated in the bile” value is reported as “less than 10%” and the “share eliminated in the urine” value was “More than 80%”.
As to vitamin B12, the “reduction in absorption from the intestinal lumen caused by bile exclusion” value in series [2] is on record as 50–60%.
